Test results published in EP0369391A2, “N-substituted amides” (BOEHRINGER INGELHEIM PHARMACEUTICALS INC., priority 1988, dated 1990).
“And” between values parts separate entries of the source, which are not always exact repeats. Identical values can stand only once. Like-named read-outs stand apart in the source and are kept apart here.

What was measured:
[1] = target: T1, Human sputum elastase ( HSE ) (Homo sapiens, UniProt P08246); test: Elastase Inhibition - In Vitro Method (hydrolysis of MeO-Suc-Ala-Ala-Pro-Val-pNA, microtiter format); format: biochemical; conditions: for inhibition at 5 µg/mL: 5ug/mL compound; for IC50: 0.5 mM substrate, 15 minutes pre-incubation
T1 construct: Human sputum elastase ( HSE ) (Elasten Products Co., Pacific, Mo.); purchased Elasten Products Co., Pacific, Mo; host or cells: human sputum (by the name of the product)
T1 sequence (P08246 30-267): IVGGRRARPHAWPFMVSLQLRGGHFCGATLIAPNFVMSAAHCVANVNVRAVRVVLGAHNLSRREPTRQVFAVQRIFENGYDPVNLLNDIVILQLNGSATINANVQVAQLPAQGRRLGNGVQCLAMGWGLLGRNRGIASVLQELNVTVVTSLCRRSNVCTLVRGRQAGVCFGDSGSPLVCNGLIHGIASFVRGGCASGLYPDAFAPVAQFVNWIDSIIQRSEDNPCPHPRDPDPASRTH
Description: The in vitro assay is based upon the hydrolysis of the commercially available (Sigma Chemical Company, St. Louis, Missouri) substrate methoxy O-succinyl-L-alanyl-L-alanyl-L-prolyl-L-valine para-nitroanilide (MeO-Suc-Ala-Sla-Pro-Val-pNA) and the resulting release of p-nitroanilide (pNA), which absorbs at 405 nm.
• a. Microtiter plates (96 well, flat bottom) • b. Vmax Kinetic Microtiter Plate Reader, equipped with 405 nm filter (Molecular Devices) • c. Microtiter Plate Mixer (Fisher Scientific) • d.
• a. Human sputum elastase ( HSE ) (Elasten Products Co., Pacific, Mo.) dissolved in 1 mg/mL in 0.05 M sodium chloride and frozen (50 µL aliquots) at -20°C until used. • b. Stock solution of MeO-Suc-Ala-Ala-Pro-Val-pNA dissolved at 15 mM in dimethylsulfoxide (DMSO) and frozen (4 mL aliquots) at -20°C until used. • c. Assay buffer: 0.1 M Tris buffer, pH 7.5 containing 0.5 sodium chloride
Screening is performed in microtiter plates, using 0.5 mM substrate and monitored on a Microtiter Reader. Enzyme activity (+/- test compound) is determined as the rate of pNA release (linear regression analysis of slope). Inhibitory activity of the test compound is calculated relative to the uninhibited enzyme control, as follows: [formula]
A frozen aliquot of HSE is thawed and diluted with assay buffer to a stock concentration of 0.02 mg/mL ( 30 x assay concentration). A frozen aliquot of the substrate stock solution is thawed and diluted to 0.5 mM with the assay buffer (final DMSO concentration is […]). 10 µl of the test compound stock solution (or assay buffer) and 10 µl of the HSE stock solution are pipetted into each microtiter well, in duplicate. The plate is mixed well, and pre-incubated at room temperature for 15 minutes. A 300 µl substrate solution is then added to each well and the OD₄₀₅ is followed for approximately 30 minutes.

[2] = target: T2, human neutrophil elastase (HNE) (Homo sapiens, UniProt P08246); test: Elastase Inhibition - Animal Model (acute hamster hemorrhage model); conditions: 20 ug i.t. compound, 50 µg HNE i.t., hemorrhage in lung lavage after 18 hours
T2 sequence (P08246 30-247 limits assumed): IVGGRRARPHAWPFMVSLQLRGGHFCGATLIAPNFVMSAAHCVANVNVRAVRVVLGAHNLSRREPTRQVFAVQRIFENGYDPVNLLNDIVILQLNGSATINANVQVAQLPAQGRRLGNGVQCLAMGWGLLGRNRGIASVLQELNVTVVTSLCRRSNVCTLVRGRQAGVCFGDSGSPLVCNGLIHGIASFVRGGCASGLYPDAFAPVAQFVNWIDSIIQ

PT = conditions: IC50 of 5 or greater is considered inactive
Human Renin = target: T3, Human Renin (Homo sapiens, UniProt P00797); test: Selectivity assay: Human Renin; format: biochemical; conditions: IC50 of 5 or greater is considered inactive
T3 sequence (P00797 67-406): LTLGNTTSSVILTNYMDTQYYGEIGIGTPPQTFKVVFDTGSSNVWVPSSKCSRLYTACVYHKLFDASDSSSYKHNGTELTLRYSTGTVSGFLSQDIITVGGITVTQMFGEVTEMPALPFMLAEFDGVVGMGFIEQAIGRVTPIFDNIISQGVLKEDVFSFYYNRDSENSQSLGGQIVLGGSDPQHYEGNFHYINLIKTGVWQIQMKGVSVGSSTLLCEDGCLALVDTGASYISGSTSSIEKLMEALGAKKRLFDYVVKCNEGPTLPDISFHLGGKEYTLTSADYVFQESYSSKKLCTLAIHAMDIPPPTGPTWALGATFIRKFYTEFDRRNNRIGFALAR

Human C1 Esterase = target: T4, Human C1 Esterase (Homo sapiens, UniProt P09871); test: Selectivity assay: Human C1 Esterase; format: biochemical; conditions: IC50 of 5 or greater is considered inactive
T4 sequence (P09871 16-688): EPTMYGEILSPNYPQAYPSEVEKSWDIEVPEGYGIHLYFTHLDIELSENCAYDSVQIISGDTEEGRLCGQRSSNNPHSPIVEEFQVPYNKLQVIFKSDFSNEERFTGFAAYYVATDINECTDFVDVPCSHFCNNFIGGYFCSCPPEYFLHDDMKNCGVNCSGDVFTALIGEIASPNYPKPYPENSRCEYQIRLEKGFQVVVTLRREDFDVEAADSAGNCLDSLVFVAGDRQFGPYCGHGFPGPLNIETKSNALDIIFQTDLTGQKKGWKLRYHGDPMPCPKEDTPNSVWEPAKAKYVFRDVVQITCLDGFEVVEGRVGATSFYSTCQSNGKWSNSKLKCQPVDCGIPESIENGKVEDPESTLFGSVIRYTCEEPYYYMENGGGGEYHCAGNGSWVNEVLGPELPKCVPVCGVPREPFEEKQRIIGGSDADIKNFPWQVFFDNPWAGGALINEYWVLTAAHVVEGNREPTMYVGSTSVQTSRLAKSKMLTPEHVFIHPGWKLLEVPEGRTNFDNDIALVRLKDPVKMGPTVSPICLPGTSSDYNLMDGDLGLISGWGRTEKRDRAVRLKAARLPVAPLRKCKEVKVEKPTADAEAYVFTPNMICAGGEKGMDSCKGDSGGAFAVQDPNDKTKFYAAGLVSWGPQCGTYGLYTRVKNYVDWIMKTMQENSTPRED

Polio 3C - Proteinase = Polio 3C - Proteinase (Poliovirus type 1, UniProt P03300); test: biochemical
APTT = test: Selectivity assay: APTT; conditions: IC50 of 5 or greater is considered inactive
Human Cathepsin G = target: T5, Human Cathepsin G (Homo sapiens, UniProt P08311); test: Selectivity assay: Human Cathepsin G; format: biochemical; conditions: IC50 of 5 or greater is considered inactive
T5 sequence (P08311 21-244): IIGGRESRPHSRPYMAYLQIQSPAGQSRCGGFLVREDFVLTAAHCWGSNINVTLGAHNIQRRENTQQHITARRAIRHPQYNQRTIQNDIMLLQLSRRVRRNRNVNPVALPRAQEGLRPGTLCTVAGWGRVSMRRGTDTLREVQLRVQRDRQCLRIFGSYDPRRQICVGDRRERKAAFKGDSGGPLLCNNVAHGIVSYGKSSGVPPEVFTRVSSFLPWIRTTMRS

Human Cathepsin B = Human Cathepsin B (Homo sapiens, UniProt P07858); test: Selectivity assay: Human Cathepsin B; format: biochemical; conditions: IC50 of 5 or greater is considered inactive
Total Complement = test: Selectivity assay: Total Complement; conditions: IC50 of 5 or greater is considered inactive
Human Urokinase = Human Urokinase (Homo sapiens, UniProt P00749); test: Selectivity assay: Human Urokinase; format: biochemical; conditions: IC50 of 5 or greater is considered inactive
[3] = target: Tissue Plasminogen Activator (Homo sapiens, UniProt P00750); test: Selectivity assay: Tissue Plasminogen Activator; format: biochemical; conditions: IC50 of 5 or greater is considered inactive
[4] = 0 % HSA, read-out: % Inhib. (5ug/mL) 0 % HSA
[5] = 0.5 % HSA added, read-out: % Inhib. (5ug/mL) 0.5 % HSA

Chain of Polio 3C - Proteinase (P03300 1566-1748 limits assumed): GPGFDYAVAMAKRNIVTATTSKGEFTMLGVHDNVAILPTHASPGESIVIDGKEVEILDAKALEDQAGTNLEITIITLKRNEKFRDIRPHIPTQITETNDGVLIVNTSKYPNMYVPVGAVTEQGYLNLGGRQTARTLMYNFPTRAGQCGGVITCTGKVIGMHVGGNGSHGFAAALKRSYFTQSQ
Chain of Tissue Plasminogen Activator (P00750 36-562): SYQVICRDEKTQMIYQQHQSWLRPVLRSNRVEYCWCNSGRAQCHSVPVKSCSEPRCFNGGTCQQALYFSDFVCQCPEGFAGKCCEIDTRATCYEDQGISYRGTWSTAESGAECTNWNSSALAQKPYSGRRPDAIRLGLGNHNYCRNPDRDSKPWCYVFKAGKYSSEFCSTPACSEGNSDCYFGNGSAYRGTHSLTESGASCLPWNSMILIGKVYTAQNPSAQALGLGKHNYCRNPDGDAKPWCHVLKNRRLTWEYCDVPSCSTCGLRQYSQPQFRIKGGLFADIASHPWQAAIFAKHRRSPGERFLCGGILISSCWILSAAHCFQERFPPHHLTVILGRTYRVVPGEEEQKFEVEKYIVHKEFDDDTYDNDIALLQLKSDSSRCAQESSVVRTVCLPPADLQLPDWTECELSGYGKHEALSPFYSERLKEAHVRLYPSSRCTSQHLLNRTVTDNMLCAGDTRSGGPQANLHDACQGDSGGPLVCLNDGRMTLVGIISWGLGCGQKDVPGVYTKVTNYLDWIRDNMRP

Structure (SMILES) | inhibition at 5 µg/mL [1, 4] | inhibition at 5 µg/mL [1, 5] | IC50 ([1]; Table I) | % Inhib. (20 ug. i.t.) [2] | also measured
CC(C)C(NC(=O)CN(C(=O)[C@@H](NC(=O)c1ccc(C(=O)NS(=O)(=O)c2ccc(Cl)cc2)cc1)C(C)C)C1CC2CCC1C2)C(=O)C(F)(F)F (stereo partly drawn) [[[4-(4-Chlorophenyl)sulfonylaminocarbonyl]phenyl-1-oxomethyl]-L-Valyl-N-(exo-bicyclo[2,2,1]hept-2-yl)glycyl-N-[3-(1,1,1-trifluoro-4-methyl-2-oxypentyl)]amide] | 99.8% | 99.5% | 0.045 µg/mL | 93.8% | –
COc1ccc(CCN(CC(=O)NC(C(=O)C(F)(F)F)C(C)C)C(=O)[C@@H](NC(=O)OCc2ccccc2)C(C)C)cc1OC (stereo partly shown) [3,4 - Dimethoxyphenethyl, CBZ] | 95.1% | 87.8% | 0.432 µg/mL | – | –
CC(C)C(NC(=O)CN(C(=O)[C@@H](NC(=O)c1ccc(C(=O)NS(=O)(=O)c2ccc(Cl)cc2)cc1)C(C)C)C1CCCC1)C(=O)C(F)(F)F (single isomer, unassigned) [Cyclopentyl, p-[p-Cl(C6H4)SO2NHCO](C6H4)CO - (Diastereomer of Above), [[4-(4-Chlorophenyl)sulfonylaminocarbonyl]phenyl-1-oxomethyl]-L-Valyl-N-cyclopentyl-glycyl-N-[3-(1,1,1-trifluoro-4-methyl-2-oxypentyl)]amide] | 99.8% | 99.7% | – | 99.0% | –
CC(C)C(NC(=O)CN(C(=O)[C@@H](NC(=O)c1ccc(C(=O)NS(=O)(=O)c2ccc(Cl)cc2)cc1)C(C)C)C1Cc2ccccc2C1)C(=O)C(F)(F)F (stereo partly shown) [Compound of Table III] | – | – | – | – | IC50 (PT): >> 100 ug/mL; IC50 (Human Renin): > 6.55 µM; IC50 (Human C1 Esterase): > 6.55 µM; IC50 (Polio 3C - Proteinase): > 82.5 µM; IC50 (APTT): >> 100 ug/mL; IC50 (Human Cathepsin G): > 9.17 µM; IC50 (Human Cathepsin B): > 6.55 µM; IC50 (Total Complement): >> 100 ug/mL; IC50 (Human Urokinase): > 6.55 µM; IC50 [3]: > 6.55 µM
CC(C)C(NC(=O)CN(C(=O)[C@@H](NC(=O)OCc1ccccc1)C(C)C)C1CCCC1)C(=O)C(F)(F)F (stereo partly shown) [Cyclopentyl, CBZ] | 100% | 99.4% | 0.082 µg/mL | – | –
COc1ccc(CCN(CC(=O)NC(C(=O)C(F)(F)F)C(C)C)C(=O)[C@@H](NC(=O)c2ccc(C(=O)NS(=O)(=O)c3ccc(Cl)cc3)cc2)C(C)C)cc1OC (stereo partly drawn) [[(4-(4-Chlorophenyl)sulfonylaminocarbonyl]phenyl-1-oxomethyl]-L-Valyl-N-[2-(3,4-dimethoxy)phenethyl] glycyl-N-[3-(1,1,1-trifluoro-4-methyl-2-oxypentyl)] amide] | 98.8% | 96.3% | – | 90.2% | IC50 ([1]; IC50, Table I): 0.103 µM
CC(C)C(NC(=O)CN(C(=O)[C@@H](NC(=O)c1ccc(C(=O)NS(=O)(=O)c2ccc(Cl)cc2)cc1)C(C)C)C1CCCC1)C(=O)C(F)(F)F (single isomer, unassigned) [[[4-(4-Chlorophenyl)sulfonylaminocarbonyl]phenyl-1-oxomethyl]-L-Valyl-N-cyclopentyl-glycyl-N-[3-(1,1,1-trifluoro-4-methyl-2-oxypentyl)]amide] | 100% | 99.8% | – | 99.2% | IC50 ([1]; Table I, read-out: IC50 (converted)): 0.113 µM and 0.0923 µM
